How the values were obtained:
recombinant human HDAC6 = recombinant human HDAC6 (Homo sapiens (Human), UniProt Q9UBN7); assay: Enzymatic screening, HDAC6 inhibition (fluorogenic FdL_G substrate); format: biochemical
Procedure, shortened: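 Enzyme was preincubated with compound (8 doses, triplicate, 1% DMSO) in 25 mM Tris-HCl pH 8, 130 mM NaCl, 0.05% Tween-20, 10% glycerol, with BSA. A FLUOR DE LYS-Green substrate was then added, and fluorescence was read after developer plus 2 μM TSA.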

recombinant human HDAC1 = recombinant human HDAC1 (Homo sapiens (Human), UniProt Q13547); assay: Enzymatic screening, HDAC1 inhibition (fluorogenic FdL_G substrate); format: biochemical
Procedure, shortened: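 Recombinant human HDAC1 inhibition was measured fluorometrically using the FLUOR DE LYS-Green (FdL_G) substrate. Compounds at 8 doses (1% DMSO final) in Tris-HCl pH 8 buffer with NaCl, Tween-20 and glycerol were preincubated in triplicate with enzyme and 1 mg/mL BSA, then given substrate. Developer I plus 2 μM TSA was added, and fluorescence read after 25 minutes in the dark.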

recombinant human HDAC1, sequence (Q13547 whole entry): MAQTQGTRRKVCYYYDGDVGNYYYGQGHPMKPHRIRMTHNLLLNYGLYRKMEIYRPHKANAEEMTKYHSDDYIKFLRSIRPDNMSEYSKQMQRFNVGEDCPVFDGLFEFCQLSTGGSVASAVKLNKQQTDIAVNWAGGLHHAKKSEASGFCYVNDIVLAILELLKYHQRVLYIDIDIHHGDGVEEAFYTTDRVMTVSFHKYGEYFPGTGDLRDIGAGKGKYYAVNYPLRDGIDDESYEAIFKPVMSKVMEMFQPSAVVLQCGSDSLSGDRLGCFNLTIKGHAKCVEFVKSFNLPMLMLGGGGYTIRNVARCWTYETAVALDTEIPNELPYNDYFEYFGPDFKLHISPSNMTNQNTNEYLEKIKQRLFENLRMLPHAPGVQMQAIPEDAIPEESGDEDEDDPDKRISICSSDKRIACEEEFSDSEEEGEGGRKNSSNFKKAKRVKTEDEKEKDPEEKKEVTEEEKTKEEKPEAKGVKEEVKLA
recombinant human HDAC6, sequence (Q9UBN7 whole entry): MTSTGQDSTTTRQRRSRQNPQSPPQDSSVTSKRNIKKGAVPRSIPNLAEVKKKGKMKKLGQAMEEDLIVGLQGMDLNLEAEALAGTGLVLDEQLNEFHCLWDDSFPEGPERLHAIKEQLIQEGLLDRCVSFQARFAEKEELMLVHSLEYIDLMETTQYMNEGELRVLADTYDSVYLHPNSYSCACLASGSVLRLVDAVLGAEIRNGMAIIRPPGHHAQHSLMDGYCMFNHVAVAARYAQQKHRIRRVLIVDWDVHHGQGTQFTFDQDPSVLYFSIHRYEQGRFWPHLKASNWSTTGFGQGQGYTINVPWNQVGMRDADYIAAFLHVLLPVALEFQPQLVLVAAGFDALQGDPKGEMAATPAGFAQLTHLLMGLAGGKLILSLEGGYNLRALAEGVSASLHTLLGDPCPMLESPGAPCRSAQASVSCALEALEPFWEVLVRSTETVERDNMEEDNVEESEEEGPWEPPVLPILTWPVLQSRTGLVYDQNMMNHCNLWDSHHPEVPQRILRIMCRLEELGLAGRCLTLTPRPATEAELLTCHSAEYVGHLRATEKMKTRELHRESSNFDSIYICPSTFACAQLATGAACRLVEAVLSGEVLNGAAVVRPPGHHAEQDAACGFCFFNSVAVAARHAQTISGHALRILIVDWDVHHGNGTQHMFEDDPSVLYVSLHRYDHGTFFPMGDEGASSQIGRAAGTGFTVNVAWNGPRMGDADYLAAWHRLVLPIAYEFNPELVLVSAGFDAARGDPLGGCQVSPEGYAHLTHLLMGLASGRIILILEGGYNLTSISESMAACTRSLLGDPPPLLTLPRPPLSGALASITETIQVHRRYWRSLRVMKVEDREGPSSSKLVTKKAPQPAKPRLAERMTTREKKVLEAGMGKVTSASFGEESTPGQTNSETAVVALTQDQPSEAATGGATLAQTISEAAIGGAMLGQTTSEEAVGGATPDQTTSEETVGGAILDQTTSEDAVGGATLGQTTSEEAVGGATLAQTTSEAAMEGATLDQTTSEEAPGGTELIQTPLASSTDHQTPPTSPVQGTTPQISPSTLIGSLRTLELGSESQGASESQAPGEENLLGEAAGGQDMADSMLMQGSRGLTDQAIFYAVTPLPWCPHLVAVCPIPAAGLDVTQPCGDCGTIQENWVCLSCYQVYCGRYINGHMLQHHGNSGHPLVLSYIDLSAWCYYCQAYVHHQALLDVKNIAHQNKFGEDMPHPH

| SMILES | IC50 (recombinant human HDAC6) | IC50 (recombinant human HDAC1) |
| --- | --- | --- |
| [2H]C([2H])(c1ccc(-c2nnc(C(F)F)o2)cc1)n1cc(-c2ccc(N)nc2)nn1 [compound 356, 5-[1-[dideuterio-[4-[5-(difluoromethyl)-1,3,4-oxadiazol-2-yl]phenyl]methyl]triazol-4-yl]pyridin-2-amine] | 43 nM | > 1000 µM |
| Fc1cc(-c2nnc(C(F)F)o2)ccc1Cn1cnc(-c2ccc(NC3=NCCN3)cc2)c1 [compound 357, N-[4-[1-[[4-[5-(difluoromethyl)-1,3,4-oxadiazol-2-yl]-2-fluorophenyl]methyl]imidazol-4-yl]phenyl]-4,5-dihydro-1H-imidazol-2-amine] | 12 nM | > 1000 µM |
| FC(F)c1nnc(-c2ccc(Cn3cnc(-c4ccc(NC5=NCCN5)cc4)c3)c(Cl)c2)o1 [compound 358, N-[4-[1-[[2-chloro-4-[5-(difluoromethyl)-1,3,4-oxadiazol-2-yl]phenyl]methyl]imidazol-4-yl]phenyl]-4,5-dihydro-1H-imidazol-2-amine] | 52 nM | 124 µM |
| Fc1c(Cn2cnc(-c3ccc(NC4=NCCN4)cc3)c2)ccc(-c2nnc(C(F)F)o2)c1F [compound 359, N-[4-[1-[[4-[5-(difluoromethyl)-1,3,4-oxadiazol-2-yl]-2,3-difluorophenyl]methyl]imidazol-4-yl]phenyl]-4,5-dihydro-1H-imidazol-2-amine] | 11 nM | > 1000 µM |
| Fc1cc(Cn2cnc(-c3ccc(NC4=NCCN4)cc3)c2)ccc1-c1nnc(C(F)F)o1 [compound 360, N-[4-[1-[[4-[5-(difluoromethyl)-1,3,4-oxadiazol-2-yl]-3-fluorophenyl]methyl]imidazol-4-yl]phenyl]-4,5-dihydro-1H-imidazol-2-amine] | 18 nM | > 1000 µM |
| Fc1cc(-c2nnc(C(F)F)o2)c(F)cc1Cn1cnc(-c2ccc(NC3=NCCN3)cc2)c1 [compound 361, N-[4-[1-[[4-[5-(difluoromethyl)-1,3,4-oxadiazol-2-yl]-2,5-difluorophenyl]methyl]imidazol-4-yl]phenyl]-4,5-dihydro-1H-imidazol-2-amine] | 9 nM | > 1000 µM |
| [2H]C([2H])(c1ccc(-c2nnc(C(F)F)o2)cn1)n1cc(-c2ccc(N)nc2)nn1 [compound 362, 5-[1-[dideuterio-[5-[5-(difluoromethyl)-1,3,4-oxadiazol-2-yl]pyridin-2-yl]methyl]triazol-4-yl]pyridin-2-amine] | 18 nM | > 1000 µM |
| O=C(Nc1cccc(-c2cn(Cc3cc(F)c(-c4nnc(C(F)F)o4)cc3F)nn2)c1)N1CCOCC1 [compound 363, N-[3-[1-[[4-[5-(difluoromethyl)-1,3,4-oxadiazol-2-yl]-2,5-difluorophenyl]methyl]triazol-4-yl]phenyl]morpholine-4-carboxamide] | 29 nM | > 1000 µM |
| Fc1cc(Cn2nnc(-c3cccc(-c4nc5c([nH]4)CNCC5)c3)n2)ccc1-c1nnc(C(F)F)o1 [compound 364, 2-(difluoromethyl)-5-[2-fluoro-4-[[5-[3-(4,5,6,7-tetrahydro-3H-imidazo[4,5-c]pyridin-2-yl)phenyl]tetrazol-2-yl]methyl]phenyl]-1,3,4-oxadiazole] | 37 nM | 570 µM |
| FC(F)c1nnc(-c2ccc(Cn3nnc(-c4cccc(-c5nc6c([nH]5)CNCC6)c4)n3)c(Cl)c2)o1 [compound 365, 2-[3-chloro-4-[[5-[3-(4,5,6,7-tetrahydro-3H-imidazo[4,5-c]pyridin-2-yl)phenyl]tetrazol-2-yl]methyl]phenyl]-5-(difluoromethyl)-1,3,4-oxadiazole] | 106 nM | > 1000 µM |
| Fc1cc(-c2nnc(C(F)F)o2)c(F)cc1Cn1nnc(-c2cccc(-c3nc4c([nH]3)CCNC4)c2)n1 [compound 367, 2-(difluoromethyl)-5-[2,5-difluoro-4-[[5-[3-(4,5,6,7-tetrahydro-1H-imidazo[4,5-c]pyridin-2-yl)phenyl]tetrazol-2-yl]methyl]phenyl]-1,3,4-oxadiazole] | 26 nM | 168 µM |
| [2H]C([2H])(c1ccc(-c2nnc(C(F)F)o2)cc1)n1cnc(-c2ccc(NC3=NCCN3)cc2)c1 [compound 368, N-[4-[1-[dideuterio-[4-[5-(difluoromethyl)-1,3,4-oxadiazol-2-yl]phenyl]methyl]imidazol-4-yl]phenyl]-4,5-dihydro-1H-imidazol-2-amine] | 17 nM | > 1000 µM |
| [2H]C([2H])(c1ccc(-c2nnc(C(F)F)o2)cn1)n1cc(-c2cccc(NC(=O)N3CCOCC3)c2)nn1 [compound 369, N-[3-[1-[dideuterio-[5-[5-(difluoromethyl)-1,3,4-oxadiazol-2-yl]pyridin-2-yl]methyl]triazol-4-yl]phenyl]morpholine-4-carboxamide] | 17 nM | > 1000 µM |
| Cn1c(N)nc2cc(-c3nnn(Cc4ncc(-c5nnc(C(F)F)o5)cc4F)n3)ccc21 [compound 370, 5-[2-[[5-[5-(difluoromethyl)-1,3,4-oxadiazol-2-yl]-3-fluoropyridin-2-yl]methyl]tetrazol-5-yl]-1-methylbenzimidazol-2-amine] | 23 nM | > 1000 µM |
| Cn1c(N)nc2cc(-c3nnn(Cc4ccc(-c5nnc(C(F)F)o5)c(F)c4F)n3)ccc21 [compound 371, 5-[2-[[4-[5-(difluoromethyl)-1,3,4-oxadiazol-2-yl]-2,3-difluorophenyl]methyl]tetrazol-5-yl]-1-methylbenzimidazol-2-amine] | 25 nM | > 1000 µM |
| Cn1c(N)nc2cc(-c3nnn(Cc4cc(F)c(-c5nnc(C(F)F)o5)cc4F)n3)ccc21 [compound 372, 5-[2-[[4-[5-(difluoromethyl)-1,3,4-oxadiazol-2-yl]-2,5-difluorophenyl]methyl]tetrazol-5-yl]-1-methylbenzimidazol-2-amine] | 19 nM | > 1000 µM |

More lines, now with the values ahead:

| IC50 (recombinant human HDAC6) | IC50 (recombinant human HDAC1) | SMILES |
| --- | --- | --- |
| 26 nM | > 1000 µM | Cn1c(N)nc2cc(-c3nnn(Cc4ccc(-c5nnc(C(F)F)o5)c(F)c4)n3)ccc21 [compound 373, 5-[2-[[4-[5-(difluoromethyl)-1,3,4-oxadiazol-2-yl]-3-fluorophenyl]methyl]tetrazol-5-yl]-1-methylbenzimidazol-2-amine] |
| 101 nM | > 1000 µM | Cn1c(N)nc2cc(-c3nnn(Cc4ccc(-c5nnc(C(F)F)o5)cc4Cl)n3)ccc21 [compound 374, 5-[2-[[2-chloro-4-[5-(difluoromethyl)-1,3,4-oxadiazol-2-yl]phenyl]methyl]tetrazol-5-yl]-1-methylbenzimidazol-2-amine] |
| 88 nM | > 1000 µM | Nc1ccc(-c2noc(Cc3ccc(-c4nnc(C(F)F)o4)cc3)n2)cc1 [compound 375, 4-[5-[[4-[5-(difluoromethyl)-1,3,4-oxadiazol-2-yl]phenyl]methyl]-1,2,4-oxadiazol-3-yl]aniline] |
| 9 nM | > 1000 µM | [2H]C([2H])(c1ccc(-c2nnc(C(F)F)o2)cn1)n1cc(-c2ccc3nc(N)sc3c2)nn1 [compound 376, 6-[1-[dideuterio-[5-[5-(difluoromethyl)-1,3,4-oxadiazol-2-yl]pyridin-2-yl]methyl]triazol-4-yl]-1,3-benzothiazol-2-amine] |
| 17 nM | 199 µM | Cn1c(N)nc2cc(-c3cn(Cc4ccc(-c5nnc(C(F)F)o5)cc4F)nn3)ccc21 [compound 378, 5-[1-[[4-[5-(difluoromethyl)-1,3,4-oxadiazol-2-yl]-2-fluorophenyl]methyl]triazol-4-yl]-1-methylbenzimidazol-2-amine] |
| 17 nM | > 1000 µM | FC(F)c1nnc(-c2ccc(Cc3nc(-c4ccc(NC5=NCCN5)cc4)no3)cc2)o1 [compound 379, N-[4-[5-[[4-[5-(difluoromethyl)-1,3,4-oxadiazol-2-yl]phenyl]methyl]-1,2,4-oxadiazol-3-yl]phenyl]-4,5-dihydro-1H-imidazol-2-amine] |
| 19 nM | > 1000 µM | FCc1nnc(-c2ccc(Cc3nc(-c4ccc(NC5=NCCN5)cc4)no3)cc2)o1 [compound 380] |
| 28 nM | > 1000 µM | [2H]C([2H])(c1cc(F)c(-c2nnc(C(F)F)o2)cc1F)n1cc(-c2ccc(N)nc2)nn1 [compound 381, 5-[1-[dideuterio-[4-[5-(difluoromethyl)-1,3,4-oxadiazol-2-yl]-2,5-difluorophenyl]methyl]triazol-4-yl]pyridin-2-amine] |
| 18 nM | > 1000 µM | [2H]C([2H])(c1ccc(-c2nnc(C(F)F)o2)cc1F)n1cc(-c2ccc3nc(N)sc3c2)nn1 [compound 382, 6-[1-[dideuterio-[4-[5-(difluoromethyl)-1,3,4-oxadiazol-2-yl]-2-fluorophenyl]methyl]triazol-4-yl]-1,3-benzothiazol-2-amine] |
| 13 nM | > 1000 µM | Fc1cc(Cc2nc(-c3ccc(NC4=NCCN4)cc3)no2)ccc1-c1nnc(C(F)F)o1 [compound 383, N-(4-(5-(4-(5-(difluoromethyl)-1,3,4-oxadiazol-2-yl)-3-fluorobenzyl)-1,2,4-oxadiazol-3-yl)phenyl)-4,5-dihydro-1H-imidazol-2-amine] |
| 30 nM | 1000 µM | [2H]C([2H])(c1ccc(-c2nnc(C(F)F)o2)c(F)c1F)n1cc(-c2ccc(N)nc2)nn1 [compound 385, 5-[1-[dideuterio-[4-[5-(difluoromethyl)-1,3,4-oxadiazol-2-yl]-2,3-difluorophenyl]methyl]triazol-4-yl]pyridin-2-amine] |
| 40 nM | 1000 µM | Nc1ncnc2sc(-c3cn(Cc4c(F)cc(-c5nnc(C(F)F)o5)cc4F)nn3)cc12 [compound 386, 6-(1-(4-(5-(difluoromethyl)-1,3,4-oxadiazol-2-yl)-2,6-difluorobenzyl)-1H-1,2,3-triazol-4-yl)thieno[2,3-d]pyrimidin-4-amine] |

— US20230286970A1, “NOVEL OXADIAZOLE-BASED SELECTIVE HDAC6 INHIBITORS” (ITALFARMACO S.P.A., priority 2020, published 2023)
